Reference: ChEMBL document CHEMBL5465560, “Selectivity Literature for EUbOPEN Chemogenomic Library” (2024)

Tests used:
[1] = molecular target: Mitogen-activated protein kinase kinase kinase 4 (Homo sapiens) (UniProt Q9Y6R4); experiment: Selectivity interaction (Ambit KINOMEscan and KiNATiv profiling in Jurkat cells) EUB0000090b MAP3K4; type: cell-based; conditions: at 1 µM
[2] = molecular target: Receptor tyrosine-protein kinase erbB-4 (Homo sapiens, UniProt Q15303); experiment: Selectivity interaction (KinomeScan (DiscoverX)) EUB0001619a ERBB4; conditions: at 1 µM
Sequence of Receptor tyrosine-protein kinase erbB-4 (Q15303 whole entry): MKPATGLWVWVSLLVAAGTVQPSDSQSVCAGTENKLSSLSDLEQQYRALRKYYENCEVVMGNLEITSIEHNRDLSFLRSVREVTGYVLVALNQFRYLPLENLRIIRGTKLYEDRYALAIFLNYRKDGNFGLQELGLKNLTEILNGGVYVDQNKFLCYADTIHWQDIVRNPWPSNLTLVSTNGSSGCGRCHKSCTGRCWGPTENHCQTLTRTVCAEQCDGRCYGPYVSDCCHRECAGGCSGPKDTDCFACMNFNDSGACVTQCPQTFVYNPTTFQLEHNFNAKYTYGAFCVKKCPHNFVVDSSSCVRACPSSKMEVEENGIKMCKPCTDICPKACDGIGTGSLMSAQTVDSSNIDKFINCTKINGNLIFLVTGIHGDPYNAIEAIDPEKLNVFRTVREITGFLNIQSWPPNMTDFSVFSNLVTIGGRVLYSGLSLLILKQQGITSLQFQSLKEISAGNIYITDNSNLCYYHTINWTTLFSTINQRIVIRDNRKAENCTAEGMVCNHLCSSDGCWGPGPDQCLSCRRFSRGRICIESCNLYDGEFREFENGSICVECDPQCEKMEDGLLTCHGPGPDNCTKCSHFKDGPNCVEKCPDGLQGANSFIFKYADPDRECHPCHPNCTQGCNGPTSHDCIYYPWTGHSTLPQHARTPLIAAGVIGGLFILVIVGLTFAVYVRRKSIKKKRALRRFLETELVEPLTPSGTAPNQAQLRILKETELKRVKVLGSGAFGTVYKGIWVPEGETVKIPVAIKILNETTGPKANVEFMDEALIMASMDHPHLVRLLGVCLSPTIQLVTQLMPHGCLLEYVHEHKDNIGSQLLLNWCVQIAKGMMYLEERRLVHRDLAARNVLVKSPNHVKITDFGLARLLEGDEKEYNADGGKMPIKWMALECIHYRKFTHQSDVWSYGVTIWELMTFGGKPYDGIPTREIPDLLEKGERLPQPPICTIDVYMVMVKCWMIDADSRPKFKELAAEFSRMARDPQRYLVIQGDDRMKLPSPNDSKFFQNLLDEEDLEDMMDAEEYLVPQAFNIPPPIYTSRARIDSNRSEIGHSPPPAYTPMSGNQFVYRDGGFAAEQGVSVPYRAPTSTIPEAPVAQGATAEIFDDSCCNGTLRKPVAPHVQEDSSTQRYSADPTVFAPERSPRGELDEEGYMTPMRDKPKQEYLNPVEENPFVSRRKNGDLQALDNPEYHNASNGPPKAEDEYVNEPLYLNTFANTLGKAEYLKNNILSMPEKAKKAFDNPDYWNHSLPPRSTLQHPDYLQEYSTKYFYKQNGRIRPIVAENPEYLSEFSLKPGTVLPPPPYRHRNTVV

[3] = molecular target: MAP kinase-interacting serine/threonine-protein kinase 1 (Homo sapiens) (UniProt Q9BUB5); experiment: Selectivity interaction (KinomeScan (DiscoverX)) EUB0000595a MKNK1; conditions: at 10 µM
Sequence of MAP kinase-interacting serine/threonine-protein kinase 1 (Homo sapiens) (Q9BUB5 whole entry, looked up): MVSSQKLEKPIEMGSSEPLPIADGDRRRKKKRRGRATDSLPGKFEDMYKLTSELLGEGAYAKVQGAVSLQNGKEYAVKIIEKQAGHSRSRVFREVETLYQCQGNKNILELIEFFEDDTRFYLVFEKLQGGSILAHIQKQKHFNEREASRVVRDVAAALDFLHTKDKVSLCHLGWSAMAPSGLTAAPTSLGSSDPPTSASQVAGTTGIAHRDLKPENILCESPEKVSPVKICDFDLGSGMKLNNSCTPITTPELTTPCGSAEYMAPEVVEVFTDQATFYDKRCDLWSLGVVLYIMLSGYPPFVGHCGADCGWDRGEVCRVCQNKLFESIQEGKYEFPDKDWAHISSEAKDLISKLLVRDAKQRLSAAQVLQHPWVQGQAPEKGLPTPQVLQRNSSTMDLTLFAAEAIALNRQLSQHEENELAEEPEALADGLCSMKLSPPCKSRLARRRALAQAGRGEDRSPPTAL

[4] = molecular target: Serine/threonine-protein kinase 24 (Homo sapiens) (UniProt Q9Y6E0); experiment: Selectivity interaction (KinomeScan (DiscoverX)) EUB0000595a STK24; conditions: at 10 µM
[5] = tested on: Receptor-type tyrosine-protein kinase FLT3 (Homo sapiens), P36888 [UNDEFINED MUTATION]; conditions: at 10 µM
[6] = molecular target: Calcium/calmodulin-dependent protein kinase type 1 (Homo sapiens) (UniProt Q14012); experiment: Selectivity interaction (ActivX KiNativ screen (kinase selectivity in THP-1 cell lysates)) EUB0000639a CAMK1; type: subcellular; conditions: lysate
Sequence of Calcium/calmodulin-dependent protein kinase type 1 (Homo sapiens) (Q14012 whole entry, looked up): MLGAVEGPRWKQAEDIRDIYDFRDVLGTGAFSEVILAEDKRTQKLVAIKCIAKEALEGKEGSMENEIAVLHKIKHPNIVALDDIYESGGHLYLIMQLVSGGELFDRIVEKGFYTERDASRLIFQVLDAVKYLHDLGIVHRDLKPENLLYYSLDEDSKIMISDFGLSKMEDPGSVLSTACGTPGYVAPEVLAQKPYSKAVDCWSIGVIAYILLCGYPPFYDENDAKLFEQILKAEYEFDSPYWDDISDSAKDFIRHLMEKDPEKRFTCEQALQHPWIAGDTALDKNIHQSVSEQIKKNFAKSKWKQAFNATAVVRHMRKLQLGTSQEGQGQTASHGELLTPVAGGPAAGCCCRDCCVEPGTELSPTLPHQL

[7] = molecular target: Death-associated protein kinase 2 (Homo sapiens) (UniProt Q9UIK4); experiment: Selectivity interaction (KinomeScan (DiscoverX)) EUB0000229b DAPK2; conditions: at 10 µM
[8] = molecular target: Calcium/calmodulin-dependent protein kinase type II subunit delta (Homo sapiens) (UniProt Q13557); experiment: Selectivity interaction (KinomeScan (DiscoverX)) EUB0000229b CAMK2D; conditions: at 10 µM
Sequence of Calcium/calmodulin-dependent protein kinase type II subunit delta (Homo sapiens) (Q13557 whole entry): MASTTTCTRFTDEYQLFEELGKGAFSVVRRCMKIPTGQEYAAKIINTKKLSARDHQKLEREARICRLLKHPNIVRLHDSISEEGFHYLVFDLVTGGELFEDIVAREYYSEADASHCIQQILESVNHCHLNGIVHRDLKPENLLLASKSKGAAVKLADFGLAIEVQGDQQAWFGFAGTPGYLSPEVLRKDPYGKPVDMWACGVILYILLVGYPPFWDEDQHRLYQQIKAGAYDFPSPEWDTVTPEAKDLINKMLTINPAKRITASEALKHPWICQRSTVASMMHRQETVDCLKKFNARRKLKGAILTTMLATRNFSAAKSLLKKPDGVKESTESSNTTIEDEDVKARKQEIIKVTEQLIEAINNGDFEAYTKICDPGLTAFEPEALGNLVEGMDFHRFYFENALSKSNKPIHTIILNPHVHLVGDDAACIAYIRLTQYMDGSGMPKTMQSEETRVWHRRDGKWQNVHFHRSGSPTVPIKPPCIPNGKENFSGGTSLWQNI

[9] = molecular target: T1, Membrane-associated tyrosine- and threonine-specific cdc2-inhibitory kinase (Homo sapiens) (UniProt Q99640); experiment: Selectivity interaction (KinomeScan (DiscoverX)) EUB0000666a PKMYT1; conditions: at 10 µM
T1 sequence (whole entry): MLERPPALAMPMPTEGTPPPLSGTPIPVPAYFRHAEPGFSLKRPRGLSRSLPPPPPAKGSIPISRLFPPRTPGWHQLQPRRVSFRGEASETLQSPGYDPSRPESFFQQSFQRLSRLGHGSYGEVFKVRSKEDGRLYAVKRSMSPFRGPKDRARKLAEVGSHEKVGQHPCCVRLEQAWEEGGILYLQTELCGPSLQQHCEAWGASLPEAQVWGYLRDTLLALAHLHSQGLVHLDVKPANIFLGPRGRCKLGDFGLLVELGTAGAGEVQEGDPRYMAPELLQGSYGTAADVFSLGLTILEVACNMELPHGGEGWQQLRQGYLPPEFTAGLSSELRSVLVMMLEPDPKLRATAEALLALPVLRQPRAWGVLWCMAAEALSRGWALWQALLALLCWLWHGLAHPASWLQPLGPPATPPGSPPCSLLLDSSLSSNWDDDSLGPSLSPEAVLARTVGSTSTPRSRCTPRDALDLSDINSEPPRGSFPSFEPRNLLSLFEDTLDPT

Peregrin (Homo sapiens) = molecular target: T2, Peregrin (Homo sapiens) (UniProt P55201); experiment: Selectivity interaction (Human bromodomain panel (DSF assay)) EUB0000233b BRPF1
T2 sequence (whole entry): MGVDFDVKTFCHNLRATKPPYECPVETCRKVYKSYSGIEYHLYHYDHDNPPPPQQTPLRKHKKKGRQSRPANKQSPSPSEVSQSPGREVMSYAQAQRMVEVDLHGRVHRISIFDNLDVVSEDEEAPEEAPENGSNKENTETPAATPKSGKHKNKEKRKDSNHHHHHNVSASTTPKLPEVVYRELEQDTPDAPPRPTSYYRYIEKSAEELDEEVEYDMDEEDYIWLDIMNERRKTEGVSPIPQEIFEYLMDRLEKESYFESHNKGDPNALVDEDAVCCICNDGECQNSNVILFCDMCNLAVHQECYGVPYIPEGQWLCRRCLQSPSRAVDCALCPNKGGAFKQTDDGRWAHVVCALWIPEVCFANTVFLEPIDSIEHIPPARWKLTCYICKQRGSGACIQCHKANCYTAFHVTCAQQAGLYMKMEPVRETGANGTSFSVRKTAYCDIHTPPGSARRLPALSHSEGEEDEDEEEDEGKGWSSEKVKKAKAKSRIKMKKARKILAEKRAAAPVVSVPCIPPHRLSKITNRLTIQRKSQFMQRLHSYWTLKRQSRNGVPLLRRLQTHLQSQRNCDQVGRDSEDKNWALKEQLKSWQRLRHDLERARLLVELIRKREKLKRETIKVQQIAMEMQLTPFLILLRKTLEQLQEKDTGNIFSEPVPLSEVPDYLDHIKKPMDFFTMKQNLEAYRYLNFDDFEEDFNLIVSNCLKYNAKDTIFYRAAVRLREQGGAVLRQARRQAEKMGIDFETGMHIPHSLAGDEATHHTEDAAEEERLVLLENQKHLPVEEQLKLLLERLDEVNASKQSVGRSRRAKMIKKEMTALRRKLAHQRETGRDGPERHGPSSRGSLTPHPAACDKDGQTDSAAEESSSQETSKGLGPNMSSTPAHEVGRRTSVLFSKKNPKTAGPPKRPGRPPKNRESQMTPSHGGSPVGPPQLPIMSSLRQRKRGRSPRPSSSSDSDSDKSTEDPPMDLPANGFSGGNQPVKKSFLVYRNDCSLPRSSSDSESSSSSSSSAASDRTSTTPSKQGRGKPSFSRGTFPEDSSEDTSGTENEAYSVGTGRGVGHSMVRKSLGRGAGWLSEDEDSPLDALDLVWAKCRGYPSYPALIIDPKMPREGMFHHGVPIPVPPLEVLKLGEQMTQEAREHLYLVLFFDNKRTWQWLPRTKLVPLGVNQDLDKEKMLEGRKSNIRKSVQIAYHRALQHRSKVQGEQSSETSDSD

[10] = molecular target: CDK6/cyclin D1 (Homo sapiens) (UniProt P24385+Q00534); experiment: (§1) Selectivity interaction (Rxn Biology Kinase assay) EUB0001632a CDK6; type: protein-complex assay; conditions: at 10 µM
[11] = molecular target: CDK6/cyclin D3 (Homo sapiens) (UniProt P30281+Q00534); experiment: as §1; type: protein-complex assay; conditions: at 10 µM
[12] = molecular target: Cyclin-dependent kinase 17 (Homo sapiens) (UniProt Q00537); experiment: Selectivity interaction (KinomeScan (DiscoverX)) EUB0000695a CDK17; conditions: at 100 nM
[13] = molecular target: Ribosomal protein S6 kinase alpha-5 (Homo sapiens) (UniProt O75582); experiment: Selectivity interaction (KinomeScan (DiscoverX)) EUB0000695a RPS6KA5; conditions: at 100 nM
Sequence of Ribosomal protein S6 kinase alpha-5 (Homo sapiens) (O75582 whole entry, looked up): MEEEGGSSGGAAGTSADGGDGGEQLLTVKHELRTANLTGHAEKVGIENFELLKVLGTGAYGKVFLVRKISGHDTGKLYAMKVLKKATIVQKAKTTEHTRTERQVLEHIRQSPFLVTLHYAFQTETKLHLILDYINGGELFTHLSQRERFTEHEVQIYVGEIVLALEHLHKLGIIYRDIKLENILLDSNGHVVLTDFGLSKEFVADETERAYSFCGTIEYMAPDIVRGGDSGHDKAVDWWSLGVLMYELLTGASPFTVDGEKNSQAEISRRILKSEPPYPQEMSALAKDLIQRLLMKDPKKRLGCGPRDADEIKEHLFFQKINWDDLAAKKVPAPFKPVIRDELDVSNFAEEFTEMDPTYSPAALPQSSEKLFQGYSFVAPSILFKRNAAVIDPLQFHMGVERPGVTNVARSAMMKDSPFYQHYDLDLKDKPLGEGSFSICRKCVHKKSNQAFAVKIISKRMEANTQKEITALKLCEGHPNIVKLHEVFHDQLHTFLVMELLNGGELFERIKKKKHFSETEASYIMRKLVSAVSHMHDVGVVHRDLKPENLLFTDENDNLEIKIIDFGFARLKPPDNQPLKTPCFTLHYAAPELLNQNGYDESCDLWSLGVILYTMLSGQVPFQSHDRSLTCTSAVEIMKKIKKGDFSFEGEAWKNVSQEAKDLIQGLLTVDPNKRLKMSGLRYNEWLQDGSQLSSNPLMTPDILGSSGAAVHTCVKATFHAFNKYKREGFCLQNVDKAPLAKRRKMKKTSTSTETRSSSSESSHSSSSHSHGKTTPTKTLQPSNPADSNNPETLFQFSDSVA

Sequence of Mitogen-activated protein kinase kinase kinase 4 (Homo sapiens) (Q9Y6R4 whole entry): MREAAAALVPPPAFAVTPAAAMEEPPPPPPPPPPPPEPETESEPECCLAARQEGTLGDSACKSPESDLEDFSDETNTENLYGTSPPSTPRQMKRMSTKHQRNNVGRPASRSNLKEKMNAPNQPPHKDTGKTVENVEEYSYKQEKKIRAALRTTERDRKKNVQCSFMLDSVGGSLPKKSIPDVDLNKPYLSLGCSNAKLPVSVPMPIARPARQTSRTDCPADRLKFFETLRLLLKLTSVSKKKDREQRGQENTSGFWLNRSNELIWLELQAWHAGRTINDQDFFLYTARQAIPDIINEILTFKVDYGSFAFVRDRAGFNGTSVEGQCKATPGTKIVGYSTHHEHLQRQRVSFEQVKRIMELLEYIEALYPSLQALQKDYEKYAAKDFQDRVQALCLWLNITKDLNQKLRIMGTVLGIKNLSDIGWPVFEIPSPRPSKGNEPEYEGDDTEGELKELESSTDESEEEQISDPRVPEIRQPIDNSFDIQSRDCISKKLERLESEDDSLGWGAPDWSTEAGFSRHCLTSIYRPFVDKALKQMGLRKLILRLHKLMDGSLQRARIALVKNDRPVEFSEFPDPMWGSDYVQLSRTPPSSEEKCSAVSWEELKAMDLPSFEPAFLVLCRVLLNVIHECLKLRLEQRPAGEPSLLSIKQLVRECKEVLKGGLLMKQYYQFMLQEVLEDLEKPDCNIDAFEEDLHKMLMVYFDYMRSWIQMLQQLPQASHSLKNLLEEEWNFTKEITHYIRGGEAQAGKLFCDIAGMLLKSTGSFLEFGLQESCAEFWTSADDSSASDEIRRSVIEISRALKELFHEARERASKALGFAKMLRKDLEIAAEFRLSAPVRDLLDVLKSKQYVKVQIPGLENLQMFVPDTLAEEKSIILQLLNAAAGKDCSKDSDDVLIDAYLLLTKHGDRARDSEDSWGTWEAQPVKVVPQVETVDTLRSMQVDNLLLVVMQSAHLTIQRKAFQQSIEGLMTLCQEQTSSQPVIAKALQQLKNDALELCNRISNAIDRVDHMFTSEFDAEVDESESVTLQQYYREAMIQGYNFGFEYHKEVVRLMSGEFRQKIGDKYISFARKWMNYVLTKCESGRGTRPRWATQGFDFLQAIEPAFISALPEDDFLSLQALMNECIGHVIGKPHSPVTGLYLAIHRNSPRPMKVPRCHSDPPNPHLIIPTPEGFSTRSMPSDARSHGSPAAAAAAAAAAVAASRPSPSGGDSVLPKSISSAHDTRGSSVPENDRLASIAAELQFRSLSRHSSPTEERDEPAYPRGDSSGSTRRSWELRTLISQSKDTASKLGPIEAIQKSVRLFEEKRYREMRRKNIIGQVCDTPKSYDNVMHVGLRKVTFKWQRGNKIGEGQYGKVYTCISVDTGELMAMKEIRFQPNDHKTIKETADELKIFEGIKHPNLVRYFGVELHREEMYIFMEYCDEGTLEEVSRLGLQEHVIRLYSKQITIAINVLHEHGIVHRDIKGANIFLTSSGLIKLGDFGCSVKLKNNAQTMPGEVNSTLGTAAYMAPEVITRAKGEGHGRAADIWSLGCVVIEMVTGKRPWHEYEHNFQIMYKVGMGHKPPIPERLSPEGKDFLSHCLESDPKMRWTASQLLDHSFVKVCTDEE

`CN(C)C/C=C/C(=O)Nc1ccc(C(=O)N2CCCC(Nc3ncc(Cl)c(-c4c[nH]c5ccccc45)n3)C2)cc1` (stereo not drawn) gave a % of control [1] of 64%.
`N#Cc1cccc(-c2c[nH]c3ncnc(N4CCOCC4)c23)c1` was tested, and the % of control [2] was 100%.
`COCC(=O)NC/C=C/c1ccc2ncnc(Nc3ccc(Oc4ccc(C)nc4)c(C)c3)c2c1` [CP-724714] was tested, and the % of control [3] was 100% and the % of control [4] was 90%.
With `Cc1cc([C@@H](C)Nc2ccccc2C(=O)O)c2nc(N3CCOCC3)cc(=O)n2c1` [AZD-6482] the % of control [5] was 53%.
`CC[C@@H]1[C@H](F)C(=O)N[C@@H]1COc1nccc2cc(C(N)=O)c(OC)cc12` [ZIMLOVISERTIB] was tested, and the % of inhibition ([6]; at 0.01 µM) was -2.6%, the % of inhibition ([6]; at 0.04 µM) was 9.8% and the % of inhibition ([6]; at 0.2 µM) was 1.9%. The % of inhibition ([6]; at 1 µM) was -7.1% and the % of inhibition ([6]; at 5 µM) was -4.3%.
In the case of `COc1cc(N(C)c2ccnc3ccc(C(F)(F)F)cc23)cc(OC)c1OC`, the % binding [7] is reported as 96% and the % binding [8] is reported as 95%.
For `O=C(NOC[C@H](O)CO)c1ccc(F)c(F)c1Nc1ccc(I)cc1F`, the % of control [9] was 80%.
`CN(C)CCCOc1ccc(-c2cc(NCCCn3cccn3)nc(S(C)(=O)=O)n2)cc1` was tested, and the dTM (Peregrin (Homo sapiens)) was < 2 K.
For `Cn1cc(-n2cnc3c(NCc4nc5cc(Cl)c(Cl)cc5[nH]4)nc(N4CCOCC4)nc32)cn1`, the % of inhibition [10] was 83.4% and the % of inhibition [11] was 52.8%.
`Cc1cc(F)c(C(=O)Nc2cccc(-c3nncn3C(C)C)n2)cc1-n1cnc(C2CC2)c1` gave a % of control [12] of 100% and a % of control [13] of 100%.
